Each molecule was assayed against AMPK (assay: AMPK activation, enzyme-linked immunosorbent assay). Settings: EC50 for AMPK activation, ELISA.
Type: biochemical
Summary of the method: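 Activator screen performed per well-known kit methods.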

Row | SMILES | EC50 [nM]
1 | CC(=O)Nc1ccc(OC2CCN(C(=O)c3ccc(C(=O)NC4CCN(Cc5ccc(C#N)cc5)CC4)cn3)CC2)cc1 [Compound 366, 6-(4-(4-acetamidophenoxy)piperidine-1-carbonyl)-N-(1-(4-cyanobenzyl)piperidin-4-yl)nicotinamide] | < 500
2 | CS(=O)(=O)Nc1ccc(OC2CCN(C(=O)c3ccc(C(=O)NC4CCN(Cc5ccc(C#N)cc5)CC4)cn3)CC2)cc1 [Compound 367, N-(1-(4-cyanobenzyl)piperidin-4-yl)-6-(4-(4-(methylsulfonamido)phenoxy)piperidine-1-carbonyl)nicotinamide] | > 10000
3 | O=C(Nc1ccc(Oc2ccc(F)cc2)nc1)c1ccc(C(=O)N2CCC(C(=O)c3ccc(N4CCCC4)cc3)CC2)cn1 [Compound 368, N-(6-(4-fluorophenoxy)pyridin-3-yl)-5-(4-(4-(pyrrolidin-1-yl)benzoyl)piperidine-1-carbonyl)picolinamide] | < 500
4 | N#Cc1ccc(CN2CCC(NC(=O)c3ccc(C(=O)N4CCC(C(=O)c5ccc(C#N)cc5)CC4)cn3)CC2)cc1 [Compound 369, 5-(4-(4-cyanobenzoyl)piperidine-1-carbonyl)-N-(1-(4-cyanobenzyl)piperidin-4-yl)picolinamide] | < 500
5 | CN(C)c1ccc(OC2CCN(C(=O)c3ccc(C(=O)NC4CCN(Cc5ccc(C#N)cc5)CC4)cn3)CC2)cc1 [Compound 370, N-(1-(4-cyanobenzyl)piperidin-4-yl)-6-(4-(4-(dimethylamino)phenoxy)piperidine-1-carbonyl)nicotinamide] | < 500
6 | N#Cc1ccc(CN2CCC(NC(=O)c3ccc(C(=O)N4CCC(Oc5ccc(NC(=O)CCOCCOCCOCCOCCNC(=O)CCC[C@@H]6SC[C@@H]7NC(=O)N[C@@H]76)cc5)CC4)nc3)CC2)cc1 [Compound 371, N-(1-(4-cyanobenzyl)piperidin-4-yl)-6-(4-(4-(17-oxo-20-((3aS,4S,6aR)-2-oxohexahydro-1H-thieno[3,4-d]imidazol-4-yl)-4,7,10,13-tetraoxa-16-azaicosanamido)phenoxy)piperidine-1-carbonyl)nicotinamide] | > 10000
7 | CSc1ccc(C(=O)C2CCN(C(=O)c3ccc(C(=O)NC4CCN(Cc5ccc(C#N)cc5)CC4)nc3)CC2)cc1 [Compound 372, N-(1-(4-cyanobenzyl)piperidin-4-yl)-5-(4-(4-(methylthio)benzoyl)piperidine-1-carbonyl)picolinamide] | < 500
8 | C[S+]([O-])c1ccc(C(=O)C2CCN(C(=O)c3ccc(C(=O)NC4CC[N+]([O-])(Cc5ccc(C#N)cc5)CC4)nc3)CC2)cc1 (centres unmarked) [Compound 374, 1-(4-cyanobenzyl)-4-(5-(4-(4-(methylsulfinyl)benzoyl)piperidine-1-carbonyl)picolinamido) piperidine 1-oxide] | > 10000
9 | N#Cc1ccc(CN2CCC(NC(=O)c3ccc(C(=O)N4CCC(C(=O)c5ccc(-n6cccn6)cc5)CC4)cn3)CC2)cc1 [Compound 375, 5-(4-(4-(1H-pyrazol-1-yl)benzoyl)piperidine-1-carbonyl)-N-(1-(4-cyanobenzyl)piperidin-4-yl)picolinamide] | < 500
10 | N#Cc1ccc(CN2CCC(NC(=O)c3ccc(C(=O)N4CCC(C(=O)c5ccc(N6CCOCC6)cc5)CC4)cn3)CC2)cc1 [Compound 376, N-(1-(4-cyanobenzyl)piperidin-4-yl)-5-(4-(4-morpholinobenzoyl)piperidine-1-carbonyl)picolinamide] | < 500
11 | N#Cc1ccc(CN2CCC(NC(=O)c3ccc(C(=O)N4CCC(C(=O)c5ccc(N6CCCC6)cc5)CC4)nc3)CC2)cc1 [Compound 377, N-(1-(4-cyanobenzyl)piperidin-4-yl)-6-(4-(4-(pyrrolidin-1-yl)benzoyl)piperidine-1-carbonyl)nicotinamide] | < 500
12 | COc1ccc(OC2CCN(C(=O)c3ccc(C(=O)NC4CCN(Cc5ccc(C#N)cc5)CC4)cn3)CC2)c([N+](=O)[O-])c1 [Compound 378, N-(1-(4-cyanobenzyl)piperidin-4-yl)-6-(4-(4-methoxy-2-nitrophenoxy)piperidine-1-carbonyl)nicotinamide] | < 500
13 | O=C(Nc1ccc(Oc2ccc(F)cc2)nc1)c1ccc(C(=O)N2CCC(C(=O)c3ccc(N4CCOCC4)cc3)CC2)cn1 [Compound 379, N-(6-(4-fluorophenoxy)pyridin-3-yl)-5-(4-(4-morpholinobenzoyl)piperidine-1-carbonyl)picolinamide] | < 500
14 | CN1CCN(c2ccc(C(=O)C3CCN(C(=O)c4ccc(C(=O)NC5CCN(Cc6ccc(C#N)cc6)CC5)nc4)CC3)cc2)CC1 [Compound 380, N-(1-(4-cyanobenzyl)piperidin-4-yl)-5-(4-(4-(4-methylpiperazin-1-yl)benzoyl)piperidine-1-carbonyl)picolinamide] | < 500

Second part, the molecule after the results:

Row | EC50 [nM] | SMILES
15 | < 500 | O=C(Nc1ccc(Oc2ccc(F)cc2)nc1)c1ccc(C(=O)N2CCC(C(=O)c3ccc(F)cc3F)CC2)cn1 [Compound 342, 5-(4-(2,4-difluorobenzoyl)piperidine-1-carbonyl)-N-(6-(4-fluorophenoxy)pyridin-3-yl)picolinamide]
16 | < 500 | O=C(Nc1ccc(Oc2ccc(F)cc2)nc1)c1ccc(C(=O)N2CCC(Oc3ccc(F)cc3F)CC2)nc1 [Compound 343, 6-(4-(2,4-difluorophenoxy)piperidine-1-carbonyl)-N-(6-(4-fluorophenoxy)pyridin-3-yl)nicotinamide]
17 | < 500 | COc1ccc(CN2CCC(NC(=O)c3ccc(C(=O)N4CCC(Oc5ccc(F)cc5F)CC4)nc3)CC2)cc1 [Compound 344, 6-(4-(2,4-difluorophenoxy)piperidine-1-carbonyl)-N-(1-(4-methoxybenzyl)piperidin-4-yl)nicotinamide]
18 | < 500 | N#Cc1ccc(CN2CCC(NC(=O)c3ccc(C(=O)N4CCC(Oc5ccc(F)cc5F)CC4)nc3)CC2)cc1 [Compound 345, N-(1-(4-cyanobenzyl)piperidin-4-yl)-6-(4-(2,4-difluorophenoxy)piperidine-1-carbonyl)nicotinamide]
19 | < 500 | N#Cc1ccc(CN2CCC(NC(=O)c3ccc(C(=O)N4CCC(C(=O)c5ccc(F)cc5F)CC4)nc3)CC2)cc1 [Compound 346, N-(1-(4-cyanobenzyl)piperidin-4-yl)-6-(4-(2,4-difluorobenzoyl)piperidine-1-carbonyl)nicotinamide]
20 | < 500 | COc1ccc(CN2CCC(NC(=O)c3ccc(C(=O)N4CCC(C(=O)c5ccc(F)cc5F)CC4)nc3)CC2)cc1 [Compound 347, 6-(4-(2,4-difluorobenzoyl)piperidine-1-carbonyl)-N-(1-(4-methoxybenzyl)piperidin-4-yl)nicotinamide]
21 | < 500 | O=C(Nc1ccc(Oc2ccc(F)cc2)nc1)c1ccc(C(=O)N2CCC(C(=O)c3ccc(F)cc3F)CC2)nc1 [Compound 348, 6-(4-(2,4-difluorobenzoyl)piperidine-1-carbonyl)-N-(6-(4-fluorophenoxy)pyridin-3-yl)nicotinamide]
22 | < 500 | N#Cc1ccc(CN2CCC(NC(=O)c3ccc(N4CCC(Oc5ccc(C#N)cc5)CC4)nn3)CC2)cc1 [Compound 351, N-(1-(4-cyanobenzyl)piperidin-4-yl)-6-(4-(4-cyanophenoxy)piperidin-1-yl)pyridazine-3-carboxamide]
23 | < 500 | N#Cc1ccc(OC2CCN(C(=O)c3ccc(C(=O)NC4CCN(Cc5nccs5)CC4)cn3)CC2)cc1 [Compound 356, 6-(4-(4-cyanophenoxy)piperidine-1-carbonyl)-N-(1-(thiazol-2-ylmethyl)piperidin-4-yl)nicotinamide]
24 | < 500 | CN(C)C(=O)c1ccc(OC2CCN(C(=O)c3ccc(C(=O)NC4CCN(Cc5ccc(C#N)cc5)CC4)nc3)CC2)cc1 [Compound 357, N-(1-(4-cyanobenzyl)piperidin-4-yl)-5-(4-(4-(dimethylcarbamoyl)phenoxy)piperidine-1-carbonyl)picolinamide]
25 | < 500 | CC(=O)c1ccc(OC2CCN(C(=O)c3ccc(C(=O)NC4CCN(Cc5ccc(C#N)cc5)CC4)nc3)CC2)cc1 [Compound 358, 5-(4-(4-acetylphenoxy)piperidine-1-carbonyl)-N-(1-(4-cyanobenzyl)piperidin-4-yl)picolinamide]
26 | < 500 | CC(=O)c1ccc(OC2CCN(C(=O)c3ccc(C(=O)Nc4ccc(Oc5ccc(F)cc5)nc4)nc3)CC2)cc1 [Compound 359, 5-(4-(4-acetylphenoxy)piperidine-1-carbonyl)-N-(6-(4-fluorophenoxy)pyridin-3-yl)picolinamide]
27 | < 500 | CN(C)C(=O)c1ccc(OC2CCN(C(=O)c3ccc(C(=O)Nc4ccc(Oc5ccc(F)cc5)nc4)nc3)CC2)cc1 [Compound 360, 5-(4-(4-(dimethylcarbamoyl)phenoxy)piperidine-1-carbonyl)-N-(6-(4-fluorophenoxy)pyridin-3-yl)picolinamide]
28 | < 500 | N#Cc1ccc(CN2CCC(NC(=O)c3ccc(N4CCC(Oc5ccc(C(F)(F)F)cc5)CC4)nn3)CC2)cc1 [Compound 361, N-(1-(4-cyanobenzyl)piperidin-4-yl)-6-(4-(4-(trifluoromethyl)phenoxy)piperidin-1-yl)pyridazine-3-carboxamide]
29 | < 500 | COc1ccc(C(=O)C2CCN(c3ccc(C(=O)NC4CCN(Cc5ccc(C#N)cc5)CC4)nn3)CC2)cc1 [Compound 362, N-(1-(4-cyanobenzyl)piperidin-4-yl)-6-(4-(4-methoxybenzoyl)piperidin-1-yl)pyridazine-3-carboxamide]
30 | < 500 | N#Cc1ccc(CN2CCC(NC(=O)c3ccc(C(=O)N4CCC(Oc5ccc([N+](=O)[O-])cc5)CC4)nc3)CC2)cc1 [Compound 363, N-(1-(4-cyanobenzyl)piperidin-4-yl)-6-(4-(4-nitrophenoxy)piperidine-1-carbonyl)nicotinamide]
31 | < 500 | N#Cc1ccc(CN2CCC(NC(=O)c3ccc(C(=O)N4CCC(Oc5ccc(N)cc5)CC4)nc3)CC2)cc1 [Compound 364, 6-(4-(4-aminophenoxy)piperidine-1-carbonyl)-N-(1-(4-cyanobenzyl)piperidin-4-yl)nicotinamide]
32 | < 500 | N#Cc1ccc(CN2CCC(NC(=O)c3ccc(C(=O)N4CCC(C(=O)c5ccc(N6CCCC6)cc5)CC4)cn3)CC2)cc1 [Compound 365, N-(1-(4-cyanobenzyl)piperidin-4-yl)-5-(4-(4-(pyrrolidin-1-yl)benzoyl)piperidine-1-carbonyl)picolinamide]
